{"source": "paper PMC12714101", "about": "“CD160-Derived Peptide as a Bidirectional Inhibitor Toward Immune Checkpoints BTLA/HVEM and HVEM/LIGHT” (Journal of Medicinal Chemistry, 2025)", "key": {"BTLA/HVEM interaction": {"test_system": "BTLA/HVEM interaction", "assay": "Cellular reporter assay, HVEM reporter cells (JE6.1-NF-κB::eGFP) stimulated with TCS-BTLA", "format": "cell-based, human", "conditions": "30 min preincubation, 24 h coculture, NF-κB::eGFP by flow cytometry, mean of four independent experiments in duplicate", "experimental": "In the next step of the study, the inhibitory properties of the designed peptides were evaluated using previously described cell-based assays. The experiment utilized reporter cells expressing HVEM (JE6.1-NF-κB::eGFP) and T cell stimulator cells expressing BTLA (TCS-BTLA). Activation of the reporter cells by TCS followed a two-signal model. The first is generated through the interaction between the T cell receptor–cluster of differentiation 3 (TCR–CD3) complex on the surface of the reporter cells and a membrane-bound antihuman CD3 single-chain antibody fragment (mAb aCD3) expressed on the TCS cells. The second signal is provided by the binding of HVEM and BTLA, which in this assay results in a strong costimulatory signal via HVEM. Activation of the reporter cells leads to the expression of nuclear factor kappa light chain enhancer of activated B cells (NF-κB), which correlates with the level of enhanced green fluorescent protein (eGFP), measured by flow cytometry. In the absence of peptides, NF-κB expression is normalized to 100%. Disruption of the BTLA/HVEM interaction by peptides results in a concentration-dependent decrease in NF-κB levels. In this study, HVEM-expressing reporter cells were stimulated with BTLA-expressing TCS cells in the presence or absence of tested peptides at three different concentrations.\n(§1) Cellular studies were performed in the same procedure as we described previously for gD- and BTLA-derived peptides. , The peptides were dissolved in the medium, and their final concentrations in wells were 150, 50, and 16,7 μM. Briefly, reporter cells expressing HVEM (JE6.1-NF-κB::eGFP) (5 × 10^4 cells/well) were preincubated with peptides for 30 min in a 96-well flat-bottom plate. Subsequently, the second cell line expressing BTLA (TCS BTLA) or LIGHT (TCS LIGHT) (2 × 10^4 cells/well) was added and cocultured for 24 h at 37 °C in an atmosphere of 5% CO2. Next, an APC-conjugated mCD45.2 antibody to exclude TCS from the reporter cells was added. The expression of the reporter gene (eGFP) was measured via flow cytometry using a CytoFLEX flow cytometer (Beckman Coulter Inc., Brea, CA, USA), and the results were analyzed using FlowJo v10.10 (FlowJo LLC, Ashland, OR, USA). The data were analyzed using GraphPad Prism 8 software (San Diego, CA, USA)."}, "HVEM/LIGHT interaction": {"test_system": "HVEM/LIGHT interaction", "assay": "Cellular reporter assay, HVEM reporter cells (JE6.1-NF-κB::eGFP) stimulated with TCS LIGHT", "format": "cell-based, human", "conditions": "24 h coculture, three experiments", "experimental": "These findings prompted us to investigate whether the peptide is also capable of inhibiting the binding of HVEM to its ligand–the LIGHT protein. Accordingly, ELISA and cell-based assays were conducted under the same conditions as those used for the BTLA/HVEM complex, with the exception that LIGHT was used instead of BTLA.\nas §1"}, "[1]": {"assay": "NMR in PBS-buffered aqueous solution (aggregation)", "format": "physicochemical", "conditions": "298 K, 2 mM sample", "experimental": "First, circular dichroism (CD) spectra were recorded for this peptide in H2O and phosphate-buffered saline (PBS). In water, the peptide adopts a disordered structure, characterized by a minimum at 197 nm. In contrast, in PBS, it undergoes conformational ordering, forming a β-strand structure with a minimum at 214 nm and maximum at 197 nm. […] To further investigate the peptide’s structure, nuclear magnetic resonance (NMR) spectra were acquired in both buffer-free aqueous solution and PBS-buffered aqueous solution. […] Narrow amide proton chemical shift dispersion (ΔδHN = 0.7 ppm), absence of medium- and long-range nuclear Overhauser effects (NOEs), and ^3JNα coupling constants indicate a lack of well-defined secondary structure (Figures S9 and S10). […] Molecular dynamics simulations with NOE-derived distance restraints generated an ensemble of structures showing high conformational diversity. […]\nNMR spectra were acquired at 298 K on Bruker spectrometers (^1H 700.55 MHz, 16.4 T and 500.13 MHz, 11.7 T). […] The ^1H–^13C HSQC spectrum was recorded at the natural abundance of the ^13C isotope. […] Spectra were processed and analyzed, respectively, with Topspin 4.4.1 (Bruker, Ettlingen, Germany) and NMRFAM-Sparky software packages. […]"}}, "note": "“And” between values parts separate entries of the source, which are not always exact repeats. Equal values may be shown once. Where a SMILES comes first, the peptide text is derived from it.", "data": [{"smiles": "CC[C@@H]1NC(=O)[C@@H](NC(=O)[C@H](CCC(N)=O)NC(=O)[C@H](Cc2ccc(O)cc2)NC(C)=O)CSSC[C@@H](C(=O)N[C@@H](Cc2c[nH]cn2)C(=O)N[C@@H](Cc2ccccc2)C(=O)N[C@@H](Cc2ccccc2)C(N)=O)NC(=O)[C@H](CCC(N)=O)NC(=O)[C@H](CC(C)C)NC(=O)[C@H](CCCNC(=N)N)NC(=O)[C@H]([C@@H](C)CC)NC(=O)CNC(=O)[C@H](CO)NC(=O)[C@H](CCCCN)NC(=O)[C@H](CCC(N)=O)NC(=O)[C@H](CO)NC(=O)[C@H](CCCNC(=N)N)NC(=O)[C@H](C)NC1=O", "note": "[A5, CD160(110–128) ^(C113X,G125C)] (HELM PEPTIDE1{[ac].Y.Q.C.[Abu].A.R.S.Q.K.S.G.I.R.L.Q.C.H.F.F.[am]}$PEPTIDE1,PEPTIDE1,4:R3-17:R3$$$V2.0)", "values": [{"measurement": "Inhibition - Cellular assay 16.67 µM", "setting": "BTLA/HVEM interaction; peptide 16.67 μM", "result": "~14% and 14.03%"}, {"measurement": "Inhibition - Cellular assay 50 µM", "setting": "BTLA/HVEM interaction; peptide 50 μM", "result": 59.04, "unit": "%"}, {"measurement": "Inhibition - Cellular assay 150 µM", "setting": "BTLA/HVEM interaction; peptide 150 μM", "result": 80.42, "unit": "%"}, {"measurement": "Inhibition of NF-κB activation, HVEM/LIGHT cell-based assay, 16.67 μM", "setting": "HVEM/LIGHT interaction; peptide 16.67 μM", "result": 13, "unit": "%"}, {"measurement": "Inhibition of NF-κB activation, HVEM/LIGHT cell-based assay, 50 μM", "setting": "HVEM/LIGHT interaction; peptide 50 μM", "result": 34, "unit": "%"}, {"measurement": "Inhibition of NF-κB activation, HVEM/LIGHT cell-based assay, 150 μM", "setting": "HVEM/LIGHT interaction; peptide 150 μM", "result": 72, "unit": "%"}, {"measurement": "Aggregation in PBS (NMR signal broadening)", "setting": "[1]", "result": "peptide aggregation"}]}]}
